Test: Gravimetric vapour sorption (GVS) isotherm, with XRPD after analysis
Assay type: physicochemical
Details: for water uptake (GVS isotherm plot): 25° C./90% RH; for XRPD after GVS analysis (change in form): after GVS cycles, 0-90% RH at 25° C.
Description: XRPD diffractograms were collected on a Bruker D8 diffractometer using Cu Kα radiation (40 kV, 40 mA) and a θ-2θ goniometer fitted with a Ge monochromator. The incident beam passes through a 2.0 mm divergence slit followed by a 0.2 mm anti-scatter slit and knife edge. The diffracted beam passes through an 8.0 mm receiving slit with 2.5° Soller slits followed by the Lynxeye Detector. The software used for data collection and analysis was Diffrac Plus XRD Commander and Diffrac Plus EVA respectively.
Hygroscopicity of a solid material may be determined by means of gravimetric vapour sorption (GVS) analysis, sometimes known by dynamic vapour sorption (DVS) analysis.
The experiment subjects a sample material which is held in a fine wire basket on a microbalance within a temperature and humidity controlled environment (chamber). Using the software, the collected data can then be processed to determine the isotherm points at the increment ranges specified during the experiment and show the overall water uptake of the material.
Sorption isotherms were obtained using a SMS DVS Intrinsic moisture sorption analyser, controlled by DVS Intrinsic Control software. The sample temperature was maintained at 25° C. by the instrument controls. The humidity was controlled by mixing streams of dry and wet nitrogen, with a total flow rate of 200 ml/min. The relative humidity was measured by a calibrated Rotronic probe (dynamic range of 1.0-100% RH), located near the sample. The weight change, (mass relaxation) of the sample as a function of %RH was constantly monitored by a microbalance (accuracy ±0.005 mg).
Typically, 5-30 mg of sample was placed in a tared mesh stainless steel basket under ambient conditions. The sample was loaded and unloaded at 40% RH and 25° C. (typical room conditions). A moisture sorption isotherm was performed as outlined below (2 scans per complete cycle). The standard isotherm was performed at 25° C. at 10% RH intervals over a 0-90% RH range. Typically, a double cycle (4 scans) was carried out. Data analysis was carried out within Microsoft Excel using the DVS Analysis Suite.

Row | SMILES | water uptake (GVS isotherm plot) | XRPD after GVS analysis (change in form)
1 | Cn1cc(-c2cc3c(N4CCN(c5ncc([C@@](C)(N)c6ccc(F)cc6)cn5)CC4)ncnn3c2)cn1 [avapritinib anhydrate, (1S)-1-(4-fluorophenyl)-1-[2-[4-[6-(1-methylpyrazol-4-yl)pyrrolo[2,1-f][1,2,4]triazin-4-yl]piperazin-1-yl]pyrimidin-5-yl]ethanamine] | about 0.1 % w/w | unchanged
2 | Cn1cc(-c2cc3c(N4CCN(c5ncc([C@@](C)(N)c6ccc(F)cc6)cn5)CC4)ncnn3c2)cn1 [avapritinib hydrate, (1S)-1-(4-fluorophenyl)-1-[2-[4-[6-(1-methylpyrazol-4-yl)pyrrolo[2,1-f][1,2,4]triazin-4-yl]piperazin-1-yl]pyrimidin-5-yl]ethanamine] | about 4.0 % w/w | unchanged
